Structures can show the parent of a compound that is named as a salt. Where two headings read alike, the source gives them in different places.

For the assay, the target named is human cloned 5-HT6 receptors (Homo sapiens, UniProt P50406). Briefly: biochemical. It is filed as binding. Also noted: selectivity: reference not given here.
The mark [1] stands for this setting: [3H]-LSD, HeLa-5HT6 cell membranes, pH 7.7, 37° C., read-out: pKi (converted).
Setting [2] is: selective 5-HT6 receptor antagonist activity.

Chain of human cloned 5-HT6 receptors (P50406 whole entry): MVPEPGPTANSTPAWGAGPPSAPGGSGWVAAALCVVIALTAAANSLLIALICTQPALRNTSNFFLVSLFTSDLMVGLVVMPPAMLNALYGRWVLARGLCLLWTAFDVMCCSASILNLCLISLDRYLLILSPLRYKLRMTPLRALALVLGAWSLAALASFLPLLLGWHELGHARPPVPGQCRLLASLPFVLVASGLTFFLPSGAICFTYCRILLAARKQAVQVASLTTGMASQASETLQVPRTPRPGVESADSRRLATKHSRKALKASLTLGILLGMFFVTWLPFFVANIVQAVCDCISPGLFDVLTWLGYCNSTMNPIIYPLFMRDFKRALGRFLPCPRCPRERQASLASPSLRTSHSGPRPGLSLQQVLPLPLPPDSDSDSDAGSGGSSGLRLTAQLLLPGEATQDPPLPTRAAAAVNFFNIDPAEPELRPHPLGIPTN

On to `COc1ccc(S(=O)(=O)Nc2ccc(I)cc2Cl)cc1N1CCN(C)CC1.Cl` [Compound 54, N-(2-Chloro-4-iodophenyl)-4-methoxy-3-(4-methylpiperazin-1-yl)-benzenesulfonamide hydrochloride], for which the Ki under setting [1] was less than 3.16 nM. For the same compound, the selectivity under setting [2] was greater than 100.

`C=Cc1ccc(NS(=O)(=O)c2ccc(OC)c(N3CCN(C)CC3)c2)cc1.Cl` [Compound 63, 4-Methoxy-3-(4-methylpiperazin-1-yl)-N-(4-vinylphenyl)benzenesulfonamide hydrochloride]: the Ki under setting [1] is less than 3.16 nM. Also, the selectivity under setting [2] is greater than 100.

In the case of `COc1ccc(S(=O)(=O)Nc2ccc(Cl)c(C(F)(F)F)c2)cc1N1CCN(C)CC1.Cl` [Compound 69, N-(4-Chloro-3-trifluoromethylphenyl)-4-methoxy-3-(4-methylpiperazin-1-yl)-benzenesulfonamide hydrochloride], under setting [1], the Ki is less than 3.16 nM. Also, under setting [2], the selectivity is greater than 100.

With `COc1ccc(S(=O)(=O)Nc2ccccc2-c2ccccc2)cc1N1CCNCC1.Cl` [Compound 113, N-Biphenyl-2-yl-4-methoxy-3-piperazin-1-ylbenzenesulfonamide hydrochloride], the Ki under setting [1] was less than 3.16 nM. The selectivity under setting [2] is greater than 100.

On to `CCc1ccccc1NS(=O)(=O)c1ccc(OC)c(N2CCNCC2)c1.Cl` [Compound 88, N-(2-Ethylphenyl)-4-methoxy-3-piperazin-1-ylbenzenesulfonamide hydrochloride], for which the Ki under setting [1] is less than 3.16 nM. For the same compound, the selectivity under setting [2] is reported as greater than 100.

`COc1ccc(S(=O)(=O)Nc2cccc(C(F)(F)F)c2)cc1N1CCNCC1.Cl` [Compound 89, 4-Methoxy-3-piperazin-1-yl-N-(3-trifluoromethylphenyl)benzenesulfonamide hydrochloride]: the Ki under setting [1] is less than 3.16 nM. Besides, the selectivity under setting [2] is greater than 100.

On to `COc1ccc(S(=O)(=O)N2CCc3c(OC)ccc(OC)c3C2)cc1N1CCN(C)CC1.Cl` [Compound 21, 5,8-Dimethoxy-2-[4-methoxy-3-(4-methylpiperazin-1-yl)-benzenesulfonyl]-1,2,3,4-tetrahydroisoquinoline hydrochloride], for which, under setting [1], the Ki is less than 3.16 nM. This compound displayed a selectivity under setting [2] greater than 100.

As to `COc1ccc(S(=O)(=O)Nc2ccccc2OC(F)(F)F)cc1N1CCN(C)CC1.Cl` [Compound 32, N-(2-Trifluoromethoxyphenyl)-4-methoxy-3-(4-methylpiperazin-1-yl)-benzenesulfonamide hydrochloride], the Ki under setting [1] is less than 3.16 nM. Further, the selectivity under setting [2] is greater than 100.

With `COc1ccc(S(=O)(=O)N2CCCc3c(Cl)cc(Cl)cc32)cc1N1CCN(C)CC1.Cl` [Compound 73, 5,7-Dichloro-1-[4-methoxy-3-(4-methylpiperazin-1-yl)benzenesulfonyl]-1,2,3,4-tetrahydroquinoline hydrochloride], the Ki under setting [1] was less than 3.16 nM. The selectivity under setting [2] was greater than 100.

`COc1ccc(S(=O)(=O)Nc2ccccc2SC)cc1N1CCNCC1.Cl` [Compound 85, 4-Methoxy-N-(2-methylsulfanylphenyl)-3-piperazin-1-ylbenzenesulfonamide hydrochloride]: the Ki under setting [1] was less than 3.16 nM. Also, under setting [2], the selectivity is on record as greater than 100.

As for `COc1ccc(S(=O)(=O)Nc2ccccc2Br)cc1N1CCNCC1.Cl` [Compound 91, N-(2-Bromophenyl)-4-methoxy-3-piperazin-1-ylbenzenesulfonamide hydrochloride], the Ki was less than 3.16 nM and the selectivity is greater than 100.

For the compound `COc1ccc(S(=O)(=O)Nc2cc(Br)ccc2Br)cc1N1CCNCC1.Cl` [Compound 100, N-(2,5-Dibromophenyl)-4-methoxy-3-piperazin-1-ylbenzenesulfonamide hydrochloride], the Ki under setting [1] is less than 3.16 nM. Under setting [2], this compound came in with a selectivity greater than 100.

Consider `C=C(C)c1ccccc1NS(=O)(=O)c1ccc(OC)c(N2CCNCC2)c1.Cl` [Compound 104, N-(2-Isopropenylphenyl)-4-methoxy-3-piperazin-1-ylbenzenesulfonamide hydrochloride], for which the Ki under setting [1] was less than 3.16 nM. Besides, the selectivity under setting [2] is recorded as greater than 100.

With `COc1ccc(S(=O)(=O)N2CCCc3ccc(Br)cc32)cc1N1CCNCC1.Cl` [Compound 145, 7-Bromo-1-(4-methoxy-3-piperazin-1-ylbenzenesulfonyl)-1,2,3,4-tetrahydroquinoline hydrochloride], the selectivity is greater than 100. For the same compound, where the note is “read-out: pKi (converted)”, the Ki was less than 3.16 nM.

For the compound `COc1ccc(S(=O)(=O)Nc2ccc(Br)c(C(F)(F)F)c2)cc1N1CCN(C)CC1.Cl` [Compound 67, N-(4-Bromo-3-trifluoromethylphenyl)-4-methoxy-3-(4-methylpiperazin-1-yl)-benzenesulfonamide hydrochloride], under setting [1], the Ki was less than 3.16 nM. In addition, the selectivity under setting [2] is recorded as greater than 100.

For the compound `COc1ccc(Cl)cc1NS(=O)(=O)c1ccc(OC)c(N2CCNCC2)c1.Cl` [Compound 132, N-(5-Chloro-2-methoxyphenyl)-4-methoxy-3-piperazin-1-ylbenzenesulfonamide hydrochloride], under setting [1], the Ki is less than 3.16 nM. Also, the selectivity under setting [2] is greater than 100.

For the compound `COc1ccc(S(=O)(=O)N2CCCc3ccc(C(F)(F)F)cc32)cc1N1CCN(C)CC1` [Compound 8, 1-[4-Methoxy-3-(4-methylpiperazin-1-yl)-benzenesulfonyl]-7-trifluoromethyl-1,2,3,4-tetrahydroquinoline], under setting [1], the Ki is less than 3.16 nM. The selectivity under setting [2] was greater than 100.

Turning to `COc1ccc(S(=O)(=O)Nc2ccc(C)c(C)c2)cc1N1CCN(C)CC1.Cl` [Compound 41, N-(3,4-Dimethylphenyl)-4-methoxy-3-(4-methylpiperazin-1-yl)-benzenesulfonamide hydrochloride], under setting [1], the Ki is less than 3.16 nM. Moreover, under setting [2], the selectivity was greater than 100.

Take `COc1ccc(S(=O)(=O)N2CCc3cccc(Cl)c3C2)cc1N1CCN(C)CC1.Cl` [Compound 44, 8-Chloro-2-[4-methoxy-3-(4-methylpiperazin-1-yl)benzenesulfonyl]-1,2,3,4-tetrahydroisoquinoline hydrochloride]: under setting [1], the Ki is less than 3.16 nM. The compound also gave a selectivity under setting [2] greater than 100.

For `COc1ccc(S(=O)(=O)Nc2ccccc2I)cc1N1CCN(C)CC1.Cl` [Compound 53, N-(2-Iodophenyl)-4-methoxy-3-(4-methylpiperazin-1-yl)benzenesulfonamide hydrochloride], the Ki under setting [1] was less than 3.16 nM. Under setting [2], the selectivity is greater than 100.

Regarding `COc1ccc(S(=O)(=O)Nc2cc(Cl)c(Cl)cc2Cl)cc1N1CCNCC1.Cl` [Compound 131, N-(2,4,5-Trichlorophenyl)-4-methoxy-3-piperazin-1-ylbenzenesulfonamide hydrochloride], the Ki under setting [1] was less than 3.16 nM. In addition, the selectivity under setting [2] is listed as greater than 100.

As to `COc1ccc(S(=O)(=O)Nc2ccc(C(C)(C)C)cc2)cc1N1CCNCC1.Cl` [Compound 107, N-(4-tert-Butylphenyl)-4-methoxy-3-piperazin-1-ylbenzenesulfonamide hydrochloride], under setting [1], the Ki was less than 3.16 nM. Besides, under setting [2], the selectivity is greater than 100.

As for `COc1ccc(S(=O)(=O)Nc2ccc(F)cc2Cl)cc1N1CCN(C)CC1.Cl` [Compound 45, N-(2-Chloro-4-fluorophenyl)-4-methoxy-3-(4-methylpiperazin-1-yl)-benzenesulfonamide hydrochloride], the Ki under setting [1] was less than 3.16 nM. This compound gave a selectivity under setting [2] greater than 100.

Take `COc1ccc(S(=O)(=O)N2CCCc3ccc(C(F)(F)F)cc32)cc1N1CCNCC1` [Compound 29, 1-(4-Methoxy-3-piperizin-1-ylbenzenesulfonyl)-7-trifluoromethyl-1,2,3,4-tetrahydroquinoline hydrochloride]: the Ki under setting [1] is less than 3.16 nM. The same compound registered a selectivity under setting [2] greater than 100.

For `COc1ccc(S(=O)(=O)Nc2ccccc2C(C)C)cc1N1CCNCC1.Cl` [Compound 79, N-(2-Isopropylphenyl)-4-methoxy-3-piperazin-1-yl-benzenesulfonamide hydrochloride], the Ki is less than 3.16 nM and the selectivity was greater than 100.

Regarding `COc1ccc(S(=O)(=O)Nc2cccc(Br)c2)cc1N1CCN(C)CC1.Cl` [Compound 3, N-(3-Bromophenyl)-4-methoxy-3-(4-methylpiperazin-1-yl)benzene sulfonamide hydrochloride], the Ki under setting [1] was less than 3.16 nM. In addition, under setting [2], the selectivity is greater than 100.

These data come from US6316450A, “Compounds” (SmithKline Beecham p.l.c., priority 1997, dated 2001).
